Two compounds from US6555328B1, “Screening methods for altering circadian rhythms and for human casein kinase I δ and/or ε phosphorylation of human clock proteins, period 1, -2 and -3” (Aventis Pharmaceuticals Inc., priority 1999, dated 2003) can be followed below.

What all share (type): cell-based
Assay [1] addresses hCKIε phosphorylation of hPER2 (Homo sapiens, UniProt P49674). In words: Treatment of transfected cells with hCKIε inhibitor: hPER2 phosphorylation. The text has this:
(§1) Furthermore, like hCKIε and hPER1, HCKIε co-immunoprecipitates with transfected hPER2. Treatment of transfected cells with the hCKIε inhibitor, CKI-7, results in a decrease of hPER1 and hPER2 phosphorylation. Pulse/chase studies reveal that increased phosphorylation of hPER2 by transfected hCKIε caused hPER2 to be degraded.

Assay [2] deals with hCKIε phosphorylation of hPER1 (Homo sapiens, UniProt P49674). Kind of assay: Treatment of transfected cells with hCKIε inhibitor: hPER1 phosphorylation.
Source text: as §1

Assay [3] relates to rat PER1 oscillation in Rat1 fibroblast or Rat SCN cells. In words: PER1 mRNA oscillation after serum shock by TaqMan RT-PCR. To be noted: 10 uM, FIG. 10/11. How it is done: To test the effect of CKI inhibitors in altering rat PER1 oscillation by quantitative PCR using TaqMan RT-PCR (Perkin Elmer Biosystems), rat-1 fibriblasts are grown in Dulbecco's modified Eagle medium supplimented with 5% fetal calf serum and a mixture of penicillin-streptomycin-glutatamine. SCN cells are grown in Dulbecco's Minimum Eagle medium supplimented with 10% fetal calf serum penicillin-streptomycin-glutamine and 2% glucose. Approximately 5×10^5 cells are plated in 10 cm petri dishes 3-5 days prior to the experiment. Once the plates are confluent, which is designated as time=0, the medium is exchanged with serum rich medium, i.e. serum containing 50% horse serum. After 2 hours of the serum shock in 50% horse serum, this medium is replaced with serum-free medium. At indicated times, the dishes are washed with PBS and kept frozen at −80° C. until the extraction of whole cell mRNA. hCK1ε inhibitor or control is added at the time when serum-free medium is added.
Whole cell mRNA is extracted by means of RNeasy Midi kit or Rnleasy 96 kit (Qiagen) and Dnase treated (Ambion DNA-free). Quantitative PCR is performed with real-time Taq-Man technology (PE Biosystems) [C. A. Heid et al., Genomes Res. 6. M (1996)] and analysed on an ABI PRISM 7700 (T. Takumi et al., Genes Cells 4, 67: 1999). […] Ratios of rPer1 to rActin were calculated and normalized.

Chain of hCKIε phosphorylation of hPER2 (P49674 whole entry): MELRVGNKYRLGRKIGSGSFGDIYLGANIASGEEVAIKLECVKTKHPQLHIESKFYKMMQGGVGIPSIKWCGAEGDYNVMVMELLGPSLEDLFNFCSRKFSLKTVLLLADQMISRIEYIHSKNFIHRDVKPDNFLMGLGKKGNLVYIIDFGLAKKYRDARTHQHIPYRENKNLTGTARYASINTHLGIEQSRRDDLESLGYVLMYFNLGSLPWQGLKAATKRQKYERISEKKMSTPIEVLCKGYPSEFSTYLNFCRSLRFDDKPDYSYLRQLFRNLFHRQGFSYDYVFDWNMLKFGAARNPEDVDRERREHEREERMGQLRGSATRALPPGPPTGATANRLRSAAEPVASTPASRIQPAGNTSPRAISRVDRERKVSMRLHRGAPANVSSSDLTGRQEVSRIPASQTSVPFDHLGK
Chain of hCKIε phosphorylation of hPER1 (P49674 whole entry): as above

For `NCCNS(=O)(=O)c1ccc(Cl)c2ccncc12` [CKI-7], the hPER2 phosphorylation result in assay [1] is listed as “decrease”. In addition, the hPER1 phosphorylation entry in assay [2] is given as “decrease”.

Regarding `CNCCC(Oc1ccc(C(F)(F)F)cc1)c1ccccc1` (stereo not drawn) [F, Fluoxitin], the “effect on circadian rhythm of cells (rat Per1 mRNA levels)” value in assay [3] is on record as “do not alter the circadian rhythm of cells”.
